Measurements taken from USRE47078E1, “Polymorphic forms of N-[4-(trifluoromethyl)benzyl]-4-methoxybutyramide” (Laboratorio Farmaceutico C.T. S.R.L., priority 2007, dated 2018).
≈ marks a conversion by molar mass, not a printed value.

Columns and labels:
Rat = details: compared with GHB, according to EP 0 932 597 B1; cited from earlier work
[1] = Solubility of the polymorphs at different pH (HPLC assay); format: physicochemical
Method: Both samples of powder (Form A and Form B) were used in order to evaluate the solubility properties of the two polymorphs at different pH.
The two samples were tested in the following pH conditions: • Hydrochloric acid buffer at pH=1.2 • Acetic acid at pH=3.0 • Phosphate buffer at pH=3.0 • Phosphate buffer at pH=4.6 • Phosphate buffer at pH=6.0 • Phosphate buffer at pH=7.4 • Alkaline phosphate buffer at pH=8.0
0.5 g of each samples were dissolved in a glass flask using 100 ml of the appropriate buffer. The two samples were then kept under stirring for 30 minutes. If the samples were completed dissolved, 1 additional gram was added in the flask and stirred for 30 minutes. The procedure was repeated till the presence of undissolved product in the bottom of the flask. After such a dissolution procedure, the samples were stored for 24 hours and then the dissolved amounts of Form A and Form B, respectively, were determined by HPLC assay.

[2] = Thermodynamic stability / interconversion of the polymorphs; format: physicochemical

In the case of `COCCCC(=O)NCc1ccc(C(F)(F)F)cc1` [N-[4-(trifluoromethyl)benzyl]-4-methoxybutyramide], the “Potency and duration of action on motor activity” value (Rat) is listed as “better than GHB”.

With `COCCCC(=O)NCc1ccc(C(F)(F)F)cc1` [Polymorphic Form B, N-[4-(trifluoromethyl)benzyl]-4-methoxybutyramide] the “Solubility, After 24 hours” value ([1]; Water) was 162.64 µg/mL (≈ 591 µM), the “Solubility, Initial evaluation” value ([1]; Water) was 125.44 µg/mL (≈ 456 µM) and the “Differences in solubility / dissolution properties between the two forms” value ([1]; dissolution tests on each polymorph) was “have not shown differences in the solubility properties”. For the same molecule, the “Solubility, After 24 hours” value ([1]; pH 1.2) was 164.47 µg/mL (≈ 597 µM), the “Solubility, Initial evaluation” value ([1]; pH 1.2) was 136.12 µg/mL (≈ 494 µM) and the “Solubility, After 24 hours” value ([1]; pH 3.0 (acetic acid)) was 164.84 µg/mL (≈ 599 µM). The “Solubility, Initial evaluation” value ([1]; pH 3.0 (acetic acid)) was 143.69 µg/mL (≈ 522 µM), the “Solubility, After 24 hours” value ([1]; pH 3.0 (phosphate buffer)) was 156.73 µg/mL (≈ 569 µM) and the “Solubility, Initial evaluation” value ([1]; pH 3.0 (phosphate buffer)) was 126.87 µg/mL (≈ 461 µM). The “Solubility, After 24 hours” value ([1]; pH 4.6) was 147.14 µg/mL (≈ 535 µM), the “Solubility, Initial evaluation” value ([1]; pH 4.6) was 129.35 µg/mL (≈ 470 µM) and the “Solubility, After 24 hours” value ([1]; pH 6.0) was 143.2 µg/mL (≈ 520 µM). For the same molecule, the “Solubility, Initial evaluation” value ([1]; pH 6.0) was 125.95 µg/mL (≈ 458 µM), the “Solubility, After 24 hours” value ([1]; pH 6.8) was 146.25 µg/mL (≈ 531 µM) and the “Solubility, Initial evaluation” value ([1]; pH 6.8) was 131.46 µg/mL (≈ 478 µM). For the same molecule, the “Solubility, After 24 hours” value ([1]; pH 7.4) was 143.79 µg/mL (≈ 522 µM), the “Solubility, Initial evaluation” value ([1]; pH 7.4) was 113.60 µg/mL (≈ 413 µM) and the “Solubility, After 24 hours” value ([1]; pH 8.0) was 146.25 µg/mL (≈ 531 µM). For the same molecule, the “Solubility, Initial evaluation” value ([1]; pH 8.0) was 130.61 µg/mL (≈ 474 µM) and the “Thermodynamic stability, conversion of one form into the other” value [2] was “thermodynamically stable, with no conversion of one into the other”.
